Measurements taken from patent publication US12568969B2, “Pyridine compounds for controlling invertebrate pests” (FMC Corporation, priority 2020, dated 2026).

Columns and labels:
Type in all cases: in vivo
[1] = tested on: corn planthopper (Peregrinus maidis (Ashmead)); assay: whole plant or invertebrate; details: Peregrinus maidis, 144 h, 6 days; for mortality at 10 ppm: sprayed at 10 ppm; for mortality at 50 ppm: sprayed at 50 ppm; for mortality at 250 ppm: sprayed at 250 ppm
Method in brief: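 Corn plants 3-4 days old were sprayed at 250, 50 and/or 10 ppm in 10% acetone with 300 ppm non-ionic surfactant, three replicates, contact and/or systemic exposure. After 1 h drying, ~15-20 nymphs (18-to-21-day-old) were added; mortality assessed visually after 6 days at 22-24° C, 50-70% RH.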

[2] = tested on: diamondback moth (Plutella xylostella (L.)); assay: Test A: control of diamondback moth on mustard plant, spray; details: sprayed at 250 ppm; assessed after 6 days
Method: (§1) Test compounds were formulated using a solution containing 10% acetone, […] and 300 ppm Activator 909 non-ionic surfactant (Loveland Products, Loveland, Colorado, USA). The formulated compounds were applied in 1 mL of liquid through an atomizer nozzle positioned 1.27 cm (0.5 inches) above the top of each test unit. Test compounds were sprayed at the rates indicated, and each test was replicated three times.
For evaluating control of diamondback moth (Plutella xylostella (L.)) the test unit consisted of a small open container with a 12-14-day-old mustard plant inside. This was pre-infested with ˜50 neonate larvae that were dispensed into the test unit via corn cob grits using an inoculator. The larvae moved onto the test plant after being dispensed into the test unit.
Test compounds were formulated and sprayed at 250 ppm. After spraying of the formulated test compound, each test unit was allowed to dry for 1 hour and then a black, screened cap was placed on top. The test units were held for 6 days in a growth chamber at 25° C. and 70% relative humidity. Plant feeding damage was then visually assessed based on foliage consumed, and larvae were assessed for mortality.

[3] = tested on: sweetpotato whitefly (Bemisia tabaci (Gennadius)); assay: Test F: control of sweetpotato whitefly on cotton plant, spray; details: 312 h, 13 days; for mortality at 50 ppm: sprayed at 50 ppm; for mortality at 250 ppm: sprayed at 250 ppm
Method in brief: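 Cotton plants 12–14 days old, trimmed to one true leaf and carrying at least 15 whitefly eggs, were sprayed at 250 and/or 50 ppm in acetone/water with non-ionic surfactant, three replicates. After 13 days at 28° C and 50-70% relative humidity, insect mortality was scored visually.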

[4] = tested on: green peach aphid (Myzus persicae (Sulzer)); assay: Test D: control of green peach aphid on radish plant, spray; details: Myzus persicae, 144 h, 6 days; for mortality at 50 ppm: sprayed at 50 ppm; for mortality at 250 ppm: sprayed at 250 ppm
Method in brief: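 Radish plants (12-15 days old) pre-infested with 30-40 aphids, sprayed with compound in 10% acetone/water with 300 ppm non-ionic surfactant at 250 and/or 50 ppm, three replicates. Held 6 days at 19-21 °C, 50-70% relative humidity, then mortality scored visually.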

[5] = tested on: cotton melon aphid (Aphis gossypii (Glover)); assay: whole plant or invertebrate; details: Aphis gossypii, 144 h, 6 days; for mortality at 50 ppm: sprayed at 50 ppm; for mortality at 250 ppm: sprayed at 250 ppm
Method in brief: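 Compounds were formulated in a solution of 10% acetone, […] and 300 ppm Activator 909 non-ionic surfactant and sprayed as 1 mL through an atomizer nozzle 1.27 cm (0.5 inches) above each test unit, with three replicates. Units were pre-infested with 30-40 aphids on leaf pieces via the cut-leaf method, soil covered with sand, then kept 6 days at 19° C. and 70% relative humidity before visual mortality scoring.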

[6] = tested on: Western Flower Thrips (Frankliniellla occidentalis (Pergande)); assay: Test G: control of Western Flower Thrips on Soleil bean plant, spray; details: sprayed at 250 ppm; 6 days
Method: as §1
For evaluating control of the Western Flower Thrips (Frankliniellla occidentalis (Pergande)) through contact and/or systemic means, the test unit consisted of a small open container with a 5-7-day-old Soleil bean plant inside.
Test compounds were formulated and sprayed at 250 ppm. After spraying, the test units were allowed to dry for 1 hour, and then about 60 thrips (adults and nymphs) were added to each unit. A black, screened cap was placed on top, and the test units were held for 6 days at 25° C. and 45-55% relative humidity. Each test unit was then visually assessed for plant damage and insect mortality.

[7] = tested on: potato leafhopper (Empoasca fabae (Harris)); assay: Test C: control of potato leafhopper on Soleil bean plant, spray; details: Empoasca fabae, 144 h; sprayed at 250 ppm; 6 days
Method: as §1
For evaluating control of potato leafhopper (Empoasca fabae (Harris)) through contact and/or systemic means, the test unit consisted of a small open container with a 5-6-day-old Soleil bean plant (primary leaves emerged) inside. White sand was added to the top of the soil, and one of the primary leaves was excised prior to application of the test compound.
[…] After spraying of the formulated test compound, the test units were allowed to dry for 1 hour before they were post-infested with 5 potato leafhoppers (18-to-21-day-old adults). A black, screened cap was placed on the top of the test unit, and the test units were held for 6 days in a growth chamber at 20° C. and 70% relative humidity. Each test unit was then visually assessed for insect mortality.

SMILES | mortality at 10 ppm [1] [%] | mortality at 50 ppm [1] [%] | mortality at 250 ppm [1] [%] | control efficacy (40% or less feeding damage and/or 100% mortality) [2] | mortality at 50 ppm [3] [%] | mortality at 250 ppm [3] [%] | mortality at 50 ppm [4] [%] | mortality at 250 ppm [4] [%] | mortality at 50 ppm [5] [%] | mortality at 250 ppm [5] [%] | control efficacy (30% or less plant damage and/or 100% mortality) [6] | mortality at 250 ppm [7] [%]
FC(c1ccc(SC(F)(F)F)cc1)c1c(Cl)cncc1-n1nccn1 (centres unmarked) [Compound 89] | ≥ 80 | ≥ 80 | ≥ 80 | very good to excellent levels of control efficacy | ≥ 70 | ≥ 70 | ≥ 80 | ≥ 80 | ≥ 80 | ≥ 80 | – | –
Fc1cncc(-n2cccn2)c1C(F)c1ccc(SC(F)(F)F)cc1 (centres unmarked) [Compound 1] | – | ≥ 80 | ≥ 80 | very good to excellent levels of control efficacy | ≥ 70 | ≥ 70 | – | ≥ 80 | ≥ 80 | ≥ 80 | very good to excellent levels of control efficacy | –
COC(c1ccc(OC(F)(F)F)cc1)c1c(F)cncc1-n1cccn1 (centres unmarked) [Compound 37] | – | ≥ 80 | ≥ 80 | – | – | ≥ 70 | – | ≥ 80 | ≥ 80 | ≥ 80 | – | ≥ 80
Fc1cncc(-n2nccn2)c1C(F)c1ccc(SC(F)(F)F)cc1 (centres unmarked) [Compound 3] | – | ≥ 80 | ≥ 80 | very good to excellent levels of control efficacy | – | ≥ 70 | ≥ 80 | ≥ 80 | ≥ 80 | ≥ 80 | – | –
Fc1cncc(-n2cccn2)c1C(F)c1ccc(C(F)(F)F)cc1 (centres unmarked) [Compound 21] | – | ≥ 80 | ≥ 80 | very good to excellent levels of control efficacy | – | – | ≥ 80 | ≥ 80 | ≥ 80 | ≥ 80 | – | ≥ 80
FC(c1ccc(SC(F)(F)F)cc1)c1ccncc1-n1nccn1 (centres unmarked) [Compound 69] | ≥ 80 | ≥ 80 | ≥ 80 | – | ≥ 70 | ≥ 70 | ≥ 80 | ≥ 80 | ≥ 80 | ≥ 80 | – | ≥ 80
COC(c1ccc(SC(F)(F)F)cc1)c1c(F)cncc1-n1nccn1 (centres unmarked) [Compound 123] | ≥ 80 | ≥ 80 | ≥ 80 | very good to excellent levels of control efficacy | ≥ 70 | ≥ 70 | ≥ 80 | ≥ 80 | ≥ 80 | ≥ 80 | – | –
FC(c1ccc(OC(F)(F)F)cc1)c1ccncc1-n1nccn1 (centres unmarked) [Compound 9] | – | ≥ 80 | ≥ 80 | – | – | – | – | – | ≥ 80 | ≥ 80 | – | ≥ 80
Fc1cncc(-c2nccs2)c1C(F)c1ccc(OC(F)(F)F)cc1 (centres unmarked) [Compound 36] | – | – | – | very good to excellent levels of control efficacy | – | ≥ 70 | – | ≥ 80 | – | – | very good to excellent levels of control efficacy | –
